Laboratory results as given in patent US6426080B1, “Cosmetic preparation of active substances with high protection factor against free radicals” (Coty, B.V., priority 1998, dated 2002).

Tests used:
[1] = standard antioxidants, known parameter; cited from earlier work
[2] = activity against free radicals compared with SOD; assay type: biochemical
Text: The Quebracho bark extract according to the invention or its hydrolysis product has a very high portion of proantho-cyanidines representing condensed tannins. […] The activity against free radicals was compared with that of SOD and found to be 42% for a 1 percent by weight solution of the extract (SOD 4%), 83% for a 2.5% by weight solution (SOD 15%)and 100% for a 5% by weight solution (SOD 38%). Preferably the extract (a) contains at least 95 percent by weight of proanthocyanidine oligomers and up to 5 percent by weight of gallic acid, in particular at least 99 percent by weight of proanthocyanidine oligomers and up to 1 percent by weight of gallic acid.

CC(=O)Oc1c(C)c(C)c2c(c1C)CCC(C)(CCC[C@H](C)CCC[C@H](C)CCCC(C)C)O2 (stereo partly shown) [a-tocopherol acetate]
radical protection factor (RPF) [1]: about 48 ×10^14 radicals/mg

CC1=C(/C=C/C(C)=C/C=C/C(C)=C/CO)C(C)(C)CCC1 [all-trans-retinole]
radical protection factor (RPF) [1]: 827 ×10^14 radicals/mg

Cc1c(C)c2c(c(C)c1O)CCC(C)(CCCC(C)CCCC(C)CCCC(C)C)O2 (racemic) [DL-α-tocopherol]
radical protection factor (RPF) [1]: 41200 ×10^14 radicals/mg

superoxide dismutase [SOD]
activity against free radicals ([2]; 1 percent by weight solution): 4% | activity against free radicals ([2]; 2.5% by weight solution): 15% | activity against free radicals ([2]; 5% by weight solution): 38%

CC(=O)OC/C=C(C)/C=C/C=C(C)/C=C/C1=C(C)CCCC1(C)C [all-trans retinal acetate]
radical protection factor (RPF) [1]: 196 ×10^14 radicals/mg
